Experimental data published in ChEMBL document CHEMBL1201862, “PubChem BioAssay data set” (2004).
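The compound was tested at five concentrations on cells cultured in 96-well plates, with a 48-hour exposure period. GI50: concentration for 50% inhibition of growth.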 Calls of active or inactive are those of the source. Rule as the data show it: active = GI50 up to about 1.1 µM and inactive = higher.

What was measured:
Test in all cases: growth of human tumour cells (NCI), 48 h
786-0 = system: 786-0
ACHN = system: ACHN
CAKI-1 = system: CAKI-1
DU-145 = system: DU-145
EKVX = system: EKVX
HCC 2998 = system: HCC 2998
HL-60 = system: HL-60
IGROV-1 = system: IGROV-1
LOX IMVI = system: LOX IMVI
MCF7 = system: MCF7
NCI-H226 = system: NCI-H226
NCI-H23 = system: NCI-H23
NCI-H460 = system: NCI-H460
NCI-H522 = system: NCI-H522
NCI/ADR-RES = system: NCI/ADR-RES
OVCAR-8 = system: OVCAR-8
PC-3 = system: PC-3
SF-295 = system: SF-295
SK-MEL-2 = system: SK-MEL-2
SK-OV-3 = system: SK-OV-3

SMILES	GI50 (786-0)	GI50 (ACHN)	GI50 (CAKI-1)	GI50 (DU-145)	GI50 (EKVX)	GI50 (HCC 2998)	GI50 (HL-60)	GI50 (IGROV-1)	GI50 (LOX IMVI)	GI50 (MCF7)	GI50 (NCI-H226)	GI50 (NCI-H23)	GI50 (NCI-H460)	GI50 (NCI-H522)	GI50 (NCI/ADR-RES)	GI50 (OVCAR-8)	GI50 (PC-3)	GI50 (SF-295)	GI50 (SK-MEL-2)	GI50 (SK-OV-3)
COc1ccc(/C=C/c2cc(=O)cc(/C=C/c3ccc(OC)c(O)c3)o2)cc1O	3.06 µM (inactive)	2.48 µM (inactive)	3.55 µM (inactive)	2.92 µM (inactive)	4.52 µM (inactive)	1.78 µM (inactive)	2 µM (inactive)	3.22 µM (inactive)	1.76 µM (inactive)	2.14 µM (inactive)	5.21 µM (inactive)	2.43 µM (inactive)	2.21 µM (inactive)	2.24 µM (inactive)	2.89 µM (inactive)	2.91 µM (inactive)	3.26 µM (inactive)	3.52 µM (inactive)	2.69 µM (inactive)	5.66 µM (inactive)
COC(=O)C(Cc1c[nH]c2ccccc12)NC(=O)c1ccc(-c2ccc(Cl)cc2Cl)o1 (configuration not stated)	43.3 µM (inactive)	38.4 µM (inactive)	42.7 µM (inactive)	71.6 µM (inactive)	27.4 µM (inactive)	18.4 µM (inactive)	10.5 µM (inactive)	32.6 µM (inactive)	53 µM (inactive)	24.4 µM (inactive)	91.4 µM (inactive)	73.3 µM (inactive)	21.6 µM (inactive)	64.3 µM (inactive)	77.8 µM (inactive)	54.1 µM (inactive)	7.96 µM (inactive)	40.5 µM (inactive)	34.8 µM (inactive)	> 100 µM (inactive)
CCCCCCCCCC(=O)N[C@@H](c1ccco1)[C@@H](O)C(=O)O[C@H]1C[C@@]2(O)[C@@H](OC(=O)c3ccccc3)[C@@H]3[C@]4(OC(C)=O)CO[C@@H]4C[C@H](O)[C@@]3(C)C(=O)[C@H](OC(C)=O)C(=C1C)C2(C)C	0.0282 µM (active)	2.92 µM (inactive)	2.85 µM (inactive)	0.106 µM (active)	10 µM (inactive)	0.0703 µM (active)	0.00966 µM (active)	0.0324 µM (active)	0.0111 µM (active)	0.00695 µM (active)	0.0311 µM (active)	0.0385 µM (active)	0.0118 µM (active)	0.0149 µM (active)	4.57 µM (inactive)	0.0298 µM (active)	0.64 µM (active)	0.0389 µM (active)		0.0269 µM (active)
C=CCN1CN(c2ccccc2)C2(CCN(CCCC3(c4ccc(F)cc4)OCCO3)CC2)C1=O	17.7 µM (inactive)	18.7 µM (inactive)	26.7 µM (inactive)	22.4 µM (inactive)	15.1 µM (inactive)	19.7 µM (inactive)	13.7 µM (inactive)	19.9 µM (inactive)	18.5 µM (inactive)	14.7 µM (inactive)	19.5 µM (inactive)	13.5 µM (inactive)		18.9 µM (inactive)	14.4 µM (inactive)	16.1 µM (inactive)	16.2 µM (inactive)	18.5 µM (inactive)		19.6 µM (inactive)
O=C(Nc1ccn(C2CCC(CO)O2)c(=O)n1)c1ccccc1 (configuration not stated)	> 100 µM (inactive)	> 100 µM (inactive)	> 100 µM (inactive)	> 100 µM (inactive)	> 100 µM (inactive)	> 100 µM (inactive)	> 100 µM (inactive)	> 100 µM (inactive)	> 100 µM (inactive)	> 100 µM (inactive)	> 100 µM (inactive)	> 100 µM (inactive)		> 100 µM (inactive)	> 100 µM (inactive)	> 100 µM (inactive)	> 100 µM (inactive)	> 100 µM (inactive)	> 100 µM (inactive)	> 100 µM (inactive)
O=[N+]([O-])/C(C(Cl)=C(Cl)Cl)=C(/Nc1ccccc1)Sc1ccccc1	21.7 µM (inactive)	19.1 µM (inactive)	13.5 µM (inactive)	21.1 µM (inactive)	19.6 µM (inactive)	18.5 µM (inactive)	20.6 µM (inactive)	19.9 µM (inactive)	15.7 µM (inactive)	28.5 µM (inactive)	23 µM (inactive)	18.7 µM (inactive)	18.4 µM (inactive)	16.2 µM (inactive)	24.4 µM (inactive)	17.7 µM (inactive)	18.5 µM (inactive)	16.5 µM (inactive)		20.1 µM (inactive)
Cc1ccc(-c2n[nH]c(=O)n2N2C(=O)C=CC2=O)cc1	> 100 µM (inactive)		> 100 µM (inactive)	> 100 µM (inactive)	> 100 µM (inactive)	> 100 µM (inactive)	> 100 µM (inactive)	> 100 µM (inactive)		> 100 µM (inactive)	> 100 µM (inactive)	> 100 µM (inactive)	> 100 µM (inactive)	> 100 µM (inactive)	> 100 µM (inactive)	> 100 µM (inactive)	> 100 µM (inactive)	> 100 µM (inactive)	> 100 µM (inactive)	> 100 µM (inactive)
CCOC(=O)C1=C(C)NC(C)=C(C(=O)OCC)C1c1ccc(Cl)cc1	13 µM (inactive)	16 µM (inactive)	16.5 µM (inactive)	17.3 µM (inactive)	16.8 µM (inactive)	14.7 µM (inactive)	0.774 µM (active)	15.1 µM (inactive)	16.8 µM (inactive)	17.1 µM (inactive)		14.4 µM (inactive)	4.6 µM (inactive)	16 µM (inactive)	17.7 µM (inactive)	16.1 µM (inactive)	14.9 µM (inactive)	12.7 µM (inactive)	18.7 µM (inactive)	16.7 µM (inactive)
CSC1=NN(c2ccccc2)C(=O)C1=C(SC)SC	24.2 µM (inactive)		20 µM (inactive)	29.9 µM (inactive)	27.7 µM (inactive)	25.6 µM (inactive)	15.9 µM (inactive)		20.2 µM (inactive)	19.2 µM (inactive)	16.1 µM (inactive)	19.1 µM (inactive)	14.2 µM (inactive)	2.44 µM (inactive)	18.4 µM (inactive)	21.5 µM (inactive)	15.1 µM (inactive)		22.8 µM (inactive)	31.1 µM (inactive)
Oc1c(-c2ccccc2)sc2ccccc12	22.4 µM (inactive)	24.7 µM (inactive)	0.836 µM (active)	18.8 µM (inactive)	24.9 µM (inactive)	17.1 µM (inactive)	22.6 µM (inactive)	27.5 µM (inactive)	15.5 µM (inactive)	33.3 µM (inactive)	16.4 µM (inactive)	20.4 µM (inactive)	19.1 µM (inactive)	27.9 µM (inactive)	34 µM (inactive)	31.6 µM (inactive)	18.7 µM (inactive)	19.5 µM (inactive)	10.8 µM (inactive)	
CCOC(=O)CCC(NC(=O)Cc1ccc(Oc2nc3ccccc3nc2-c2cccs2)cc1)C(=O)OCC (configuration not stated)	2.49 µM (inactive)	2.44 µM (inactive)	39.3 µM (inactive)	7.45 µM (inactive)	26.1 µM (inactive)	32.2 µM (inactive)	> 100 µM (inactive)	47.5 µM (inactive)	20.7 µM (inactive)	> 100 µM (inactive)	16.6 µM (inactive)	61.9 µM (inactive)	34.4 µM (inactive)	52 µM (inactive)	4.95 µM (inactive)	1.82 µM (inactive)	80.2 µM (inactive)	40.9 µM (inactive)	56.5 µM (inactive)	
Nc1ccc2nc3c(nc2c1)C(=O)c1ccccc1-3	75 µM (inactive)	> 100 µM (inactive)		> 100 µM (inactive)	> 100 µM (inactive)	> 100 µM (inactive)	> 100 µM (inactive)	> 100 µM (inactive)		> 100 µM (inactive)	29 µM (inactive)	> 100 µM (inactive)	69.2 µM (inactive)	> 100 µM (inactive)	> 100 µM (inactive)	> 100 µM (inactive)	> 100 µM (inactive)	> 100 µM (inactive)		> 100 µM (inactive)
NC(=O)C1CCN(Cc2c(Cl)c(Cl)c(CN3CCC(C(N)=O)CC3)c(Cl)c2Cl)CC1	77.1 µM (inactive)	> 100 µM (inactive)	> 100 µM (inactive)	> 100 µM (inactive)	38.6 µM (inactive)	> 100 µM (inactive)	> 100 µM (inactive)		> 100 µM (inactive)	> 100 µM (inactive)	> 100 µM (inactive)	> 100 µM (inactive)	> 100 µM (inactive)	> 100 µM (inactive)	> 100 µM (inactive)	> 100 µM (inactive)	> 100 µM (inactive)	23.7 µM (inactive)	42.9 µM (inactive)	15.1 µM (inactive)
CSc1cnc2ccccc2c1SC1CN(Cc2ccccc2)c2ccccc2C1=O (configuration not stated)	> 100 µM (inactive)	> 100 µM (inactive)	> 100 µM (inactive)	> 100 µM (inactive)	> 100 µM (inactive)	> 100 µM (inactive)	35 µM (inactive)	> 100 µM (inactive)	> 100 µM (inactive)	> 100 µM (inactive)	> 100 µM (inactive)	> 100 µM (inactive)	> 100 µM (inactive)	> 100 µM (inactive)	> 100 µM (inactive)		> 100 µM (inactive)	> 100 µM (inactive)	> 100 µM (inactive)	> 100 µM (inactive)
